The structures appear in SMILES notation.

Our source for the IC50 values is US20230339851A1, “CXCR6 SULFONAMIDE COMPOUNDS” (CHEMOCENTRYX, INC., priority 2022, published 2023).

T1 sequence (O00574 whole entry): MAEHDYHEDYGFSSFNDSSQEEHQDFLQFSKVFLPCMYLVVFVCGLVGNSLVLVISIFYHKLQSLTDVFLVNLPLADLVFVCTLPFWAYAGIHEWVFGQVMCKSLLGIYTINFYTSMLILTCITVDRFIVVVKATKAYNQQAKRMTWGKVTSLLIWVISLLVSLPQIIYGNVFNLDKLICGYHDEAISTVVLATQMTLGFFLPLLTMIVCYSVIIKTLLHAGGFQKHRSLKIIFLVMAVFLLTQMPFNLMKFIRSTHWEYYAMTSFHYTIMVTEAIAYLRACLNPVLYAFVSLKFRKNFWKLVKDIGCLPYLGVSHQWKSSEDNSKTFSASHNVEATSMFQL

This assay has as its target T1, human CXCR6 (Homo sapiens, UniProt O00574).
T1 construct: expressed in transfected cells
The assay can be described thus: Radioligand Binding Assay (125I-CXCL16 displacement). Conditions: L1.2 cells stably transfected with human CXCR6 cDNA, 0.1 nM 125I-CXCL16, 4° C., three-hour incubation; read-out: Potency (IC50). How it is done: L1.2 cells stably transfected with human CXCR6 cDNA ([…]) were incubated at 4° C. in HBSS containing 0.1 % BSA and 0.1 nM of ^125I-CXCL16 plus various concentrations of Compound. Following a three-hour incubation period, cells were aspirated onto polyethyleneimine-treated GF/B glass fiber filters (PerkinElmer, Waltham, MA) with a cell harvester (Tomtec, Hamden, CT) and washed twice with washing buffer (25 mM Hepes, 500 mM NaCl, 1 mM CaCI2, 5 mM MgCI2, pH 7.1). Fifty µl of MicroScint-20 (PerkinElmer, Waltham, MA) was added to each well of the filters, and radioactive emissions (cpm) were measured on a Packard TopCount Scintillation counter (PerkinElmer, Waltham, MA). IC50 values were calculated with GraphPad Prism using 3 parameter nonlinear regression. […]
Usually IC50 stands for the concentration needed to halve the response being measured. For the molecule `CCOc1cc(NC(=O)[C@@H](O)C(C)C)ccc1S(=O)(=O)Nc1cccc(OC(C)C)c1` [Example 1.074], the IC50 was in the range of 200 to 750 nM.

`CCOc1cc(NC(=O)[C@@H](O)C(C)C)ccc1S(=O)(=O)Nc1cccc(C(F)(F)F)c1F` [Example 1.075]: the IC50 was 2000 to 20000 nM. Consider `CCOc1cc(NC(=O)c2ccnc(OC)c2)ccc1S(=O)(=O)Nc1cccc(OC(F)(F)F)c1` [Example 1.076], for which the IC50 is 200 to 750 nM. In the case of `COc1cc(NC(=O)C2CC3C=CC2C3)ccc1S(=O)(=O)Nc1cccc(C(F)(F)F)c1` (centres unmarked) [Example 1.077], the 50% inhibitory concentration (IC50) fell in the range of 2000 to 20000 nM. With `CC(C)[C@H](O)C(=O)Nc1ccc(S(=O)(=O)Nc2cccc(OC(F)(F)F)c2)c(Cl)c1` [Example 1.078] the figure was no more than 200 nM; with `Cc1cc(NC(=O)[C@@H](CO)C2CC2)ccc1S(=O)(=O)Nc1cccc(OC(F)(F)F)c1` [Example 1.079], no more than 200 nM; with `CCOc1cc(NC(=O)[C@@H](CO)c2ccccc2)ccc1S(=O)(=O)Nc1cccc(C2CC2)c1` [Example 1.080], no more than 200 nM.

As for `CCOc1cc(NC(=O)C2CCC(=O)N2C)ccc1S(=O)(=O)Nc1cccc(OC(F)(F)F)c1` (centres unmarked) [Example 1.081], the concentration for half-maximal inhibition (IC50) lay within 750 to 2000 nM. Under `CCOc1cc(NC(=O)[C@@H](CO)C(C)C)ccc1S(=O)(=O)Nc1cccc(C2CC2)c1` [Example 1.082] stands no more than 200 nM. Under `CCOc1cc(NC(=O)C2(O)CCCCC2)ccc1S(=O)(=O)Nc1cccc(OC(F)(F)F)c1` [Example 1.083] stands 750 to 2000 nM; under `CCOc1cc(NC(=O)[C@@H](O)C(C)C)ccc1S(=O)(=O)Nc1ccc(F)c(C(F)(F)F)c1` [Example 1.084], no more than 200 nM.

With `CC(C)[C@H](CO)C(=O)Nc1ccc(S(=O)(=O)Nc2cccc(OC(F)(F)F)c2)c(Cl)c1` [Example 1.085], the half-inhibitory concentration (IC50) is no more than 200 nM. With `CCOc1cc(NC(=O)[C@@H](N)c2ccccc2)ccc1S(=O)(=O)Nc1cccc(OC(F)(F)F)c1` [Example 1.086] the figure was no more than 200 nM; with `CCOc1cc(NC(=O)[C@@H](O)C(C)C)ccc1S(=O)(=O)Nc1cccc(C(F)(F)F)c1` [Example 1.088], no more than 200 nM; with `CCOc1cc(NC(=O)[C@@H](NC(=O)C(F)(F)F)C(C)CC)ccc1S(=O)(=O)Nc1cccc(OC(F)(F)F)c1` (some centres unmarked) [Example 1.089], no more than 200 nM.

Take `COc1cc(NC(=O)C2=CCCCC2)ccc1S(=O)(=O)Nc1cccc(OC(F)(F)F)c1` [Example 1.090]: the IC50 was in the range of 750 to 2000 nM. With `CCOc1cc(NC(=O)C(O)c2ccc3c(c2)OCO3)ccc1S(=O)(=O)Nc1cccc(OC(F)(F)F)c1` (centres unmarked) [Example 1.091] the figure was 200 to 750 nM. Under `CCOc1cc(NC(=O)C(CO)C2CCOCC2)ccc1S(=O)(=O)Nc1cccc(OC(F)(F)F)c1` (centres unmarked) [Example 1.092] stands 200 to 750 nM.

On to `Cc1cc(NC(=O)c2ccnnc2)ccc1S(=O)(=O)Nc1cccc(C(F)(F)F)c1` [Example 1.093], for which the half-maximal inhibitory concentration (IC50) was 750 to 2000 nM. With `CCOc1cc(NC(=O)C(O)C2CCCOC2)ccc1S(=O)(=O)Nc1cccc(OC(F)(F)F)c1` (centres unmarked) [Example 1.094] the figure was no more than 200 nM; with `CCOc1cc(NC(=O)C(C)(O)c2ccccc2)ccc1S(=O)(=O)Nc1cccc(OC(F)(F)F)c1` (centres unmarked) [Example 1.095], no more than 200 nM. With `CCOc1cc(NC(=O)[C@H]2CC(C)=C(C)C[C@@H]2C(=O)O)ccc1S(=O)(=O)Nc1cccc(OC(F)(F)F)c1` [Example 1.096] the figure was no more than 200 nM; with `CCOc1cc(NC(=O)Cc2ccccc2)ccc1S(=O)(=O)Nc1cccc(OC(F)(F)F)c1` [Example 1.097], no more than 200 nM. Under `Cc1cc(NC(=O)c2ccccn2)ccc1S(=O)(=O)Nc1cccc(C(F)(F)F)c1` [Example 1.098] stands 2000 to 20000 nM; under `CCCc1cc(NC(=O)[C@@H](CO)C2CC2)ccc1S(=O)(=O)Nc1cccc(OC(F)(F)F)c1` [Example 1.099], no more than 200 nM; under `Cc1cc(NC(=O)c2ccn(C)c(=O)c2)ccc1S(=O)(=O)Nc1cccc(OC(F)(F)F)c1` [Example 1.100], 200 to 750 nM. Turning to `CCOc1cc(NC(=O)[C@@H](CO)C(C)C)ccc1S(=O)(=O)Nc1cccc(OC(F)(F)F)c1C` [Example 1.101], the concentration for half-maximal inhibition (IC50) is 2000 to 20000 nM. Turning to `CCOc1cc(NC(=O)[C@@H](CO)C(C)C)ccc1S(=O)(=O)Nc1ccc(C)c(C(F)(F)F)c1` [Example 1.102], the IC50 was no more than 200 nM. Under `CCOc1cc(NC(=O)c2cc[nH]c(=O)c2)ccc1S(=O)(=O)Nc1cccc(OC(F)(F)F)c1` [Example 1.103] stands no more than 200 nM; under `CCOc1cc(NC(=O)C(CN)c2ccccc2)ccc1S(=O)(=O)Nc1cccc(OC(F)(F)F)c1` (centres unmarked) [Example 1.104], no more than 200 nM. With `CCOc1cc(NC(=O)[C@@H](O)C(C)C)ccc1S(=O)(=O)Nc1cccc(OC(F)(F)F)c1` [Example 1.105], the IC50 was no more than 200 nM. Consider `CCOc1cc(NC(=O)CC(O)c2nccn2C)ccc1S(=O)(=O)Nc1cccc(OC(F)(F)F)c1` (centres unmarked) [Example 1.106], for which the half-inhibitory concentration (IC50) is 2000 to 20000 nM.

For `CCOc1cc(NC(=O)[C@@H](NC=O)C(C)CC)ccc1S(=O)(=O)Nc1cccc(OC(F)(F)F)c1` (some centres unmarked) [Example 1.108], the IC50 was no more than 200 nM. With `CCOc1cc(NC(=O)[C@@H](N)CC(C)C)ccc1S(=O)(=O)Nc1cccc(OC(F)(F)F)c1` [Example 1.109] the figure was no more than 200 nM. Take `CCOc1cc(NC(=O)c2ccn(C)c(=O)c2)ccc1S(=O)(=O)Nc1cccc(OC(F)(F)F)c1` [Example 1.110]: the IC50 was no more than 200 nM. With `COc1cc(NC(=O)[C@H]2CCCC[C@H]2O)ccc1S(=O)(=O)Nc1cccc(OC(F)(F)F)c1` [Example 1.111] the figure was 200 to 750 nM; with `COc1cc(NC(=O)c2ccnn2C)ccc1S(=O)(=O)Nc1cc(C(F)(F)F)cc(C(F)(F)F)c1` [Example 1.112], 2000 to 20000 nM. With `CCOc1cc(NC(=O)C(CO)C2CCCCC2)ccc1S(=O)(=O)Nc1cccc(OC(F)(F)F)c1` (centres unmarked) [Example 1.113] the figure was no more than 200 nM; with `COc1cc(NC(=O)c2ccnn2C)ccc1S(=O)(=O)Nc1ccc(Cl)cc1` [Example 1.114], 200 to 750 nM. With `COc1cc(NC(=O)c2ccns2)ccc1S(=O)(=O)Nc1cccc(C(F)(F)F)c1` [Example 1.115] the figure was no more than 200 nM. Consider `Cc1cc(NC(=O)c2nccn2C)ccc1S(=O)(=O)Nc1cccc(C(F)(F)F)c1` [Example 1.116], for which the IC50 lay in the range of 2000 to 20000 nM. Under `CCOc1cc(NC(=O)c2ccnc(N)c2)ccc1S(=O)(=O)Nc1cccc(OC(F)(F)F)c1` [Example 1.117] stands no more than 200 nM; under `CCOc1cc(NC(=O)C(CC2CCOCC2)C(=O)O)ccc1S(=O)(=O)Nc1cccc(OC(F)(F)F)c1` (centres unmarked) [Example 1.118], no more than 200 nM; under `CCOc1cc(NC(=O)[C@@H](CO)c2ccccc2)ccc1S(=O)(=O)Nc1cccc(OC(C)C)c1` [Example 1.119], 200 to 750 nM. `CCOc1cc(NC(=O)C2CCC(=O)N(CC)C2)ccc1S(=O)(=O)Nc1cccc(OC(F)(F)F)c1` (centres unmarked) [Example 1.120]: the 50% inhibitory concentration (IC50) was in the range of 2000 to 20000 nM. Under `CCOc1cc(NC(=O)[C@@H](CO)c2ccccc2)ccc1S(=O)(=O)Nc1ccc2c(c1)OC(F)(F)O2` [Example 1.121] stands 2000 to 20000 nM; under `COc1cc(NC(=O)CC(C)(C)O)ccc1S(=O)(=O)Nc1cccc(C(F)(F)F)c1` [Example 1.122], 2000 to 20000 nM.

For `CCOc1cc(NC(=O)C2CCOCC2)ccc1S(=O)(=O)Nc1ccc(C)c(OC(F)(F)F)c1` [Example 1.123], the IC50 was no more than 200 nM. Take `CCCCOc1cc(NC(=O)c2ccns2)ccc1S(=O)(=O)Nc1cccc(C(F)(F)F)c1` [Example 1.124]: the IC50 was 2000 to 20000 nM. Under `COc1cc(NC(=O)c2ccnn2C)ccc1S(=O)(=O)Nc1ccc(OC(F)(F)F)c(C)c1` [Example 1.125] stands 750 to 2000 nM; under `CCOc1cc(NC(=O)c2cc(=O)n(C)cc2C)ccc1S(=O)(=O)Nc1cccc(OC(F)(F)F)c1` [Example 1.126], no more than 200 nM.

Consider `CCOc1cc(NC(=O)C(COC)C(=O)O)ccc1S(=O)(=O)Nc1cccc(OC(F)(F)F)c1` (centres unmarked) [Example 1.127], for which the concentration for half-maximal inhibition (IC50) fell in the range of 200 to 750 nM. Under `CCOc1cc(NC(=O)C(CO)CCC(C)C)ccc1S(=O)(=O)Nc1cccc(OC(F)(F)F)c1` (centres unmarked) [Example 1.128] stands no more than 200 nM; under `COc1cc(NC(=O)[C@@H](O)c2ccccc2)ccc1S(=O)(=O)Nc1cccc(OC(F)(F)F)c1` [Example 1.129], no more than 200 nM; under `CC(=O)Nc1ccc(S(=O)(=O)Nc2cccc(C(F)(F)F)c2)c(Br)c1` [Example 1.130], 2000 to 20000 nM. Turning to `CCOc1cc(NC(=O)CC(O)CC2CCOCC2)ccc1S(=O)(=O)Nc1cccc(OC(F)(F)F)c1` (centres unmarked) [Example 1.131], the IC50 lay in the range of 2000 to 20000 nM. With `CC(=O)Nc1ccc(S(=O)(=O)Nc2cccc(OC(F)(F)F)c2)c(C(C)C)c1` [Example 1.132] the figure was 2000 to 20000 nM; with `CCOc1cc(NC(=O)C(C(C)C)C(C)O)ccc1S(=O)(=O)Nc1cccc(OC(F)(F)F)c1` (centres unmarked) [Example 1.133], no more than 200 nM. With `CC(C)[C@H](O)C(=O)Nc1ccc(S(=O)(=O)Nc2cccc(OC(F)(F)F)c2)c(OC(F)(F)F)c1` [Example 1.134] the figure was 200 to 750 nM. Under `CCOc1cc(NC(=O)[C@@H](CO)C2CC2)ccc1S(=O)(=O)Nc1ccc(CC)c(C)c1` [Example 1.135] stands no more than 200 nM. With `COc1ccc(C(=O)Nc2ccc(S(=O)(=O)Nc3cccc(C(F)(F)F)c3)c(C)c2)cc1` [Example 1.136], the 50% inhibitory concentration (IC50) fell in the range of 750 to 2000 nM.

In the case of `CCOC(=O)[C@H]1CC=CC[C@@H]1C(=O)Nc1ccc(S(=O)(=O)Nc2cccc(OC(F)(F)F)c2)c(OCC)c1` [Example 1.138], the IC50 was no more than 200 nM.
